The results in this text go back to PubChem BioAssay (NCI).

What all share (test): DTP human tumour cell line panel, 48 h
The subject of assay [1] is 786-0 renal.
In assay [2] the test system is COLO 205 colon.
Assay [3] has as its system DMS 114 small cell lung.
Assay [4] relates to HCT-116 colon.
In assay [5] the test system is M14 melanoma.
Assay [6] concerns NCI-H460 lung.
The test system of assay [7] is OVCAR-5 ovarian.
Assay [8] deals with SF-268 CNS.
Assay [9] concerns SF-539 CNS.
Assay [10] has as its system SR leukemia.
The subject of assay [11] is UACC-257 melanoma.
Assay [12] concerns UACC-62 melanoma.
The test system of assay [13] is UO-31 renal.
The test system of assay [14] is MOLT-4 leukemia.
Assay [15] has as its system DU-145 prostate.
The subject of assay [16] is HS 578T breast.
The test system of assay [17] is MDA-N.

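Five compound concentrations were applied to cells in 96-well plates for 48 hours; endpoints were derived by simple linear interpolation of the resulting dose-response curve. The concentration for full growth arrest is given as TGI.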

With `C[N+](C)(C)CC(=O)N/N=C/c1oc(-c2cccc([N+](=O)[O-])c2)c(-c2cccc([N+](=O)[O-])c2)c1[N+](=O)[O-]`, the TGI in assay [1], in assay [2], in [3], in [4], in assay [5] and in assay [6] was more than 100 µM each time. Further, the TGI in assay [7], in assay [8], in assay [9], in [10], in assay [11] and in assay [12] was more than 100 µM throughout. The compound also came in with a TGI in assay [13] of more than 100 µM.

With `OC1=CN=C(C2CC2)Oc2ccccc21`, the TGI in assay [1], in assay [2], in assay [3], in assay [4], in assay [5] and in [14] was more than 100 µM throughout. Further, the TGI in assay [6], in assay [8], in assay [9], in [11], in [12] and in [13] was more than 100 µM in each case.

For the compound `Clc1ccc(/C=C/c2nc(-c3ccc(Cl)cc3)cn3c2nc2ccccc23)cc1`, the TGI in assay [1], in assay [2], in assay [15], in assay [4], in assay [16] and in assay [5] was more than 100 µM in each case. Further, the TGI in [17], in assay [14], in assay [6], in [7], in [8] and in assay [9] was more than 100 µM throughout. The TGI in assay [10], in assay [11], in assay [12] and in assay [13] was more than 100 µM throughout.

Regarding `CC(=O)c1c2c(cc3c1CC1(C3)Cc3ccc4c(c3C1=O)CCC4)CCC2` (stereo not drawn), the TGI in assay [1] was more than 100 µM; in [2], 39.3 µM; in [15] it was more than 100 µM; in [4], more than 100 µM; in assay [16], more than 100 µM; in assay [5], more than 100 µM. For the same compound, the TGI in [17], in assay [14], in assay [6], in assay [7], in [8] and in assay [9] was more than 100 µM each time. In addition, the TGI in assay [10] was 64 µM; in [11] it was 14.9 µM; in [12] it was more than 100 µM; in assay [13] it was more than 100 µM.

On to `Cc1cc(CN(Cc2ccccc2)Cc2nc3ccccc3[nH]2)c(O)c(CN(Cc2nc3ccccc3[nH]2)Cc2nc3ccccc3[nH]2)c1`, for which the TGI was 73.4 µM in [1]; more than 55.1 µM in assay [2]; more than 100 µM in assay [15]; 23.1 µM in assay [4]; more than 100 µM in assay [16]; 26.6 µM in [5]. For the same compound, the TGI in assay [17] is 29 µM; in assay [14], 42.1 µM; in assay [6], 28 µM; in assay [7] it was more than 100 µM; in [8], more than 100 µM; in assay [9] it was 22.4 µM. Also, the TGI is more than 25.3 µM in [10], 23.1 µM in [11], 18.5 µM in assay [12] and 36.7 µM in [13].

As for `COC(=O)NN/C=C(\C=Nc1ccccc1)[N+](=O)[O-]`, the TGI in [1], in [2], in [3], in assay [4], in assay [5] and in [14] was more than 100 µM in each case. In addition, the TGI in assay [6], in assay [8], in assay [10], in assay [11], in [12] and in assay [13] was more than 100 µM in each case.

Regarding `Cc1ccc(N(C)S(=O)(=O)c2ccccc2)cc1`, the TGI in [1], in assay [2], in assay [15], in assay [4], in assay [16] and in assay [5] was more than 100 µM throughout. Moreover, the TGI in assay [17], in assay [14], in [6], in assay [7], in assay [8] and in assay [9] was more than 100 µM each time. The TGI in [10], in assay [11], in assay [12] and in assay [13] was more than 100 µM throughout.

For `O=[N+]([O-])c1ccc(OP(=O)(O)OCC2OC(CP(=O)(O)O)C(O)C2O)cc1` (stereo not drawn), the TGI in [1], in assay [2], in assay [15], in [4], in [16] and in assay [5] was more than 100 µM in each case. For the same compound, the TGI in [17], in [14], in assay [6], in [7], in assay [8] and in [9] was more than 100 µM throughout. Also, the TGI in assay [10], in [11], in assay [12] and in assay [13] was more than 100 µM in each case.

As to `CC(=O)OCC1OC(N2C(=O)CC(N)=Nc3ccccc32)C(OC(C)=O)C(OC(C)=O)C1OC(C)=O` (stereo not drawn), the TGI was more than 100 µM in [1]; 29.7 µM in [2]; more than 100 µM in [15]; more than 100 µM in assay [4]; more than 100 µM in assay [16]; more than 100 µM in [5]. In addition, the concentration for total growth inhibition (TGI) in [17] is more than 100 µM; in assay [14], 57.3 µM; in assay [6], more than 100 µM; in assay [7], more than 100 µM; in assay [8] it was more than 100 µM; in assay [9], 67.5 µM. Further, the TGI in assay [10], in assay [11], in [12] and in assay [13] was more than 100 µM each time.

In general, TGI refers to the concentration at which net growth stops. Low values mean greater sensitivity of the cells, high ones lower sensitivity of the cells.
